pIC50: −log10 of the molar value. Counter-ions that a name gives are not always drawn.
Assays:
Type in all cases: biochemical
AKT1 = target: T1, AKT1 (Homo sapiens, UniProt P31749); assay: AKT Kinase Assay (IMAP fluorescent polarisation) vs AKT1; conditions: activated AKT1, FAM Crosstide substrate
T1 construct: purchased SignalChem
Method: (§1) Testing of the compounds was performed using an AKT Kinase Assay:
(§2) Activated AKT isoforms 1, 2 and 3 were assayed utilising a 5′ FAM Crosstide (Seq. GRPRTSSFAEG-OH). The extent of kinase phosphorylation was determined by fluorescent polarisation using IMAP progressive binding reagent, which introduces binding beads which allow the reagent to specifically bind to phosphate residues via covalent co-ordination complex bonds.
(§3) iMAP binding solution stops Crosstide/kinase interaction and specifically binds phosphorylated substrates. The degree of phosphorylation is determined by fluorescent polarisation (excitation 485 nm; emission 528 nm) or the reduction in speed of rotation of the excited substrate.
(§4) The following materials were used in the assay: • a) Activated AKT isoforms (SignalChem.) dissolved in Complete Reaction buffer at a pre-determined concentration selected so that the assay was carried out in the linear range. • b) AKT substrate peptide: FAM Crosstide (R7110) Molecular Devices, diluted in complete reaction buffer. • c) iMAP Progressive Screening Express Kit (R8127) Molecular Devices • d) Complete Reaction Buffer containing 0.1% BSA, 10 mM Tris-HCl, 10 mM MgCl2, 0.05% NaN3 and 0.01% phosphate free BSA, 1 mM DTT • e) Progressive Binding Solution containing 75% Buffer A, 25% Buffer B and low volume Binding Reagent which contains the binding entity for the assay • f) ATP diluted in complete reaction buffer • g) Black polystyrene 384 well assay plates (Nunc). • h) Biotek Synergy 4 Hybrid Plate reader.
(§5) 50 μl of test compound was dissolved in DMSO (Sigma Aldrich) and serially diluted in complete reaction buffer to give a fourteen point half log dose response and plated into 384 well black plates. The compound was incubated at room temperature with activated AKT isoform ([…]) at the pre-determined concentration, for 45 minutes.
(§6) […] of ATP solution mixed with 2.5 μl of AKT substrate peptide (FAM Crosstide (R7110) Molecular Devices) were dispensed into each well and the plate centrifuged at 1000 rpm for 20 seconds to ensure homogenous mixing of reagents. The reaction mix was incubated in the dark for one hour at room temperature.
(§7) The kinase reaction was stopped by the addition of Progressive Binding Solution and the mixture allowed to equilibrate for one hour in the dark, at room temperature.
(§8) The fluorescent polarisation generated in each well was determined using a […] Synergy 4 Hybrid plate reader. In brief, each reaction solution was excited at 485 nm with the emission measured at 528 nm in both the parallel and perpendicular pathway.
(§9) The polarisation value generated in each well was calculated by Gen5 software (Biotek) and the % inhibition of kinase activity compared to vehicle control was calculated via GraphPad Prism. IC50 values for each compound were calculated by non-linear regression analysis using Prism software.
(§10) All plates were internally controlled by two methods. Firstly, by calculating the signal:noise ratio; based on kinase polarisation without inhibitor and polarisation generated by complete reaction buffer in the absence of activated kinase. Secondly by determining IC50 values generated by known inhibitors of the AKT isoforms.

AKT2 = target: T2, AKT2 (Homo sapiens, UniProt P31751); assay: AKT Kinase Assay (IMAP fluorescent polarisation) vs AKT2; conditions: activated AKT2, FAM Crosstide substrate
T2 construct: purchased SignalChem
Method: as §1, §2, §3, §4, §5, §6, §7, §8, §9, §10

AKT3 = target: T3, AKT3 (Homo sapiens, UniProt Q9Y243); assay: AKT Kinase Assay (IMAP fluorescent polarisation) vs AKT3; conditions: activated AKT3, FAM Crosstide substrate
T3 construct: purchased SignalChem
Method: as §1, §2, §3, §4, §5, §6, §7, §8, §9, §10

T2 sequence (P31751 whole entry): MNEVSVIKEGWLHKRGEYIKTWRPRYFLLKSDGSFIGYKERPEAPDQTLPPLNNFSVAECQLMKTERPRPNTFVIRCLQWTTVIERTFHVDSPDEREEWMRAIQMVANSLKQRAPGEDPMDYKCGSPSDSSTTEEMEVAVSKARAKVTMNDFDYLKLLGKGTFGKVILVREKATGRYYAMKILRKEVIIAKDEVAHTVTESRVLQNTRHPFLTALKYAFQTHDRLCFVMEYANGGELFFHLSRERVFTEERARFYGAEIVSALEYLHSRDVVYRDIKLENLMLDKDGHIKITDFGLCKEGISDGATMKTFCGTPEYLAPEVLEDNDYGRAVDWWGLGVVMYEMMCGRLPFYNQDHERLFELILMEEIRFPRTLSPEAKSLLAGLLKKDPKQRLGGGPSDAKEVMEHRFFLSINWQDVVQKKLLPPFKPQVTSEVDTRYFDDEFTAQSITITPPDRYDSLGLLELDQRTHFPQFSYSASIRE
T3 sequence (Q9Y243 whole entry): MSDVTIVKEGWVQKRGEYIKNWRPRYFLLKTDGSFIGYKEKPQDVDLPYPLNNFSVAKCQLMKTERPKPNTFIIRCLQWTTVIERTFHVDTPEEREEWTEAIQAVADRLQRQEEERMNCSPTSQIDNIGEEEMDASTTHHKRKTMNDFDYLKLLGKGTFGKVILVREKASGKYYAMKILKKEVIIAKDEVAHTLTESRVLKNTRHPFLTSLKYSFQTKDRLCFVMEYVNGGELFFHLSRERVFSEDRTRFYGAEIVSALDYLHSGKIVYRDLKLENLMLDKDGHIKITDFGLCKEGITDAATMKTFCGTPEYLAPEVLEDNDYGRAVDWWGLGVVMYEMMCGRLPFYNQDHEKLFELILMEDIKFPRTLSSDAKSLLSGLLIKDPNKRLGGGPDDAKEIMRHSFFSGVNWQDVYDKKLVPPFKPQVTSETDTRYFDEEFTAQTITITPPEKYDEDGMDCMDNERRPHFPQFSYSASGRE
T1 sequence (P31749 whole entry): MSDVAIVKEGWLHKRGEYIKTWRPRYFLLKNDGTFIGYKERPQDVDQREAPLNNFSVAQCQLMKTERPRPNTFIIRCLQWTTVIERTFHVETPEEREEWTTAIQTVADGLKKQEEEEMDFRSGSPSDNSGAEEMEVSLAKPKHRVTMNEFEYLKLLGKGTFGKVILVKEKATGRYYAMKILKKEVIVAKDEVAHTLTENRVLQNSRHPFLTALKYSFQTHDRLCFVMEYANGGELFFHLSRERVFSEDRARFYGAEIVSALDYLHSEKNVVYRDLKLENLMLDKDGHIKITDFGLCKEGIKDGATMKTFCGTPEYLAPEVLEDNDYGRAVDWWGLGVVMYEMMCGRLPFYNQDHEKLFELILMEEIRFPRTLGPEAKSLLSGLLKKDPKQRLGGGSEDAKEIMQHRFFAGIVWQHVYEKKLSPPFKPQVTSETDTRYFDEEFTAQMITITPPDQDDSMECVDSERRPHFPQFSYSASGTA

SMILES | pIC50 (AKT1) | pIC50 (AKT2) | pIC50 (AKT3)
COc1nc(N2CCCCC2)nc2oc(-c3ccc(C4(N)CCC4)cc3)c(-c3ccccc3)c12 [Example 47, 1-(4-(4-Methoxy-5-phenyl-2-(piperidin-1-yl)furo[2,3-d]pyrimidin-6-yl)phenyl)cyclobutanamine] | 5.00 to 6.00 | 5.00 to 6.00 | < 5.00
NC(=O)c1ccc2c(-c3ccccc3)c(-c3ccc(C4(N)CCC4)cc3)oc2c1 [Example 5, 2-(4-(1-Aminocyclobutyl)phenyl)-3-phenylbenzofuran-6-carboxamide] | 5.00 to 6.00 | 5.00 to 6.00 | < 5.00
Cn1cc(-c2cn(C)c(=O)c3c(-c4ccccc4)c(-c4ccc(C5(N)CCC5)cc4)oc23)cn1 [Example 114, 2-(4-(1-Aminocyclobutyl)phenyl)-5-methyl-7-(1-methyl-1H-pyrazol-4-yl)-3-phenylfuro[3,2-c]pyridin-4(5H)-one] | 6.00 to 7.00 | 6.00 to 7.00 | 5.00 to 6.00
COc1nc(NCCO)nc2oc(-c3ccc(C4(N)CCC4)cc3)c(-c3ccccc3)c12 [Example 38, 2-((6-(4-(1-Aminocyclobutyl)phenyl)-4-methoxy-5-phenylfuro[2,3-d]pyrimidin-2-yl)amino)ethanol] | ≥ 7.00 | 6.00 to 7.00 | < 5.00
Cn1ccc2oc(-c3ccc(C4(N)CCC4)cc3)c(-c3ccccc3)c2c1=O [Example 4, 2-(4-(1-Aminocyclobutyl)phenyl)-5-methyl-3-phenylfuro[3,2-c]pyridin-4(5H)-one] | 6.00 to 7.00 | 5.00 to 6.00 | < 5.00
COc1nc(NCCCO)nc2oc(-c3ccc(C4(N)CCC4)cc3)c(-c3ccccc3)c12 [Example 41, 3-((6-(4-(1-Aminocyclobutyl)phenyl)-4-methoxy-5-phenylfuro[2,3-d]pyrimidin-2-yl)amino)propan-1-ol] | ≥ 7.00 | 6.00 to 7.00 | < 5.00
NC1(c2ccc(-c3oc4nc(N5CCOCC5)ncc4c3-c3ccccc3)cc2)CCC1 [Example 52, 1-(4-(2-Morpholino-5-phenylfuro[2,3-d]pyrimidin-6-yl)phenyl)cyclobutanamine] | 5.00 to 6.00 | 6.00 to 7.00 | < 5.00
CCn1c(NCCO)nc2oc(-c3ccc(C4(N)CCC4)cc3)c(-c3ccccc3)c2c1=O [Example 93, 6-(4-(1-Aminocyclobutyl)phenyl)-3-ethyl-2-((2-hydroxyethyl)amino)-5-phenylfuro[2,3-d]pyrimidin-4(3H)-one] | 5.00 to 6.00 | ≥ 7.00 | 5.00 to 6.00
NC1(c2ccc(-c3oc4ccccc4c(=O)c3-c3ccccc3)cc2)CCC1 [Example 29, 2-[4-(1-Amino-cyclobutyl)-phenyl]-3-phenyl-chromen-4-one hydrogen chloride*] | 5.00 to 6.00 | 5.00 to 6.00 | < 5.00
Cn1c(NCC(N)=O)nc2oc(-c3ccc(C4(N)CCC4)cc3)c(-c3ccccc3)c2c1=O [Example 63, 2-((6-(4-(1-Aminocyclobutyl)phenyl)-3-methyl-4-oxo-5-phenyl-3,4-dihydrofuro[2,3-d]pyrimidin-2-yl)amino)acetamide] | 6.00 to 7.00 | 6.00 to 7.00 | < 5.00
CCn1cnc2oc(-c3ccc(C4(N)CCC4)cc3)c(-c3ccccc3)c2c1=O [Example 104, 6-(4-(1-Aminocyclobutyl)phenyl)-3-ethyl-5-phenylfuro[2,3-d]pyrimidin-4(3H)-one, HCl] | 5.00 to 6.00 | ≥ 7.00 | 5.00 to 6.00
CNc1nc2oc(-c3ccc(C4(N)CCC4)cc3)c(-c3ccccc3)c2c(=O)n1CC1CC1 [Example 94] | 5.00 to 6.00 | ≥ 7.00 | 5.00 to 6.00
Cc1nc2oc(-c3ccc(C4(N)CCC4)cc3)c(-c3ccccc3)c2c(=O)n1C [Example 87, 6-(4-(1-Aminocyclobutyl)phenyl)-2,3-dimethyl-5-phenylfuro[2,3-d]pyrimidin-4(3H)-one] | 6.00 to 7.00 | 6.00 to 7.00 | 5.00 to 6.00
COc1nc(N)nc2oc(-c3ccc(C4(N)CCC4)cc3)c(-c3ccccc3)c12 [Example 31, 6-(4-(1-Aminocyclobutyl)phenyl)-4-methoxy-5-phenylfuro[2,3-d]pyrimidin-2-amine] | ≥ 7.00 | 6.00 to 7.00 | < 5.00
COc1nc(N2CCC(N)CC2)nc2oc(-c3ccc(C4(N)CCC4)cc3)c(-c3ccccc3)c12 [Example 39, 1-(6-(4-(1-Aminocyclobutyl)phenyl)-4-methoxy-5-phenylfuro[2,3-d]pyrimidin-2-yl)piperidin-4-amine] | 6.00 to 7.00 | 6.00 to 7.00 | 5.00 to 6.00
NC1(c2ccc(-c3oc4nc(NCCO)ncc4c3-c3ccccc3)cc2)CCC1 [Example 51, 2-((6-(4-(1-Aminocyclobutyl)phenyl)-5-phenylfuro[2,3-d]pyrimidin-2-yl)amino)ethanol] | 6.00 to 7.00 | 6.00 to 7.00 | < 5.00

Next, values leading:

pIC50 (AKT1) | pIC50 (AKT2) | pIC50 (AKT3) | SMILES
5.00 to 6.00 | 6.00 to 7.00 | < 5.00 | NC1(c2ccc(-c3oc4c(=O)n(CCF)ccc4c3-c3ccccc3)cc2)CCC1 [Example 130, 2-(4-(1-Aminocyclobutyl)phenyl)-6-(2-fluoroethyl)-3-phenylfuro[2,3-c]pyridin-7(6H)-one]
5.00 to 6.00 | 5.00 to 6.00 | < 5.00 | Cn1cc(-c2cnc3oc(-c4ccc(C5(N)CCC5)cc4)c(-c4ccccc4)c3n2)cn1 [Example 136, 1-(4-(2-(1-Methyl-1H-pyrazol-4-yl)-7-phenylfuro[2,3-b]pyrazin-6-yl)phenyl)cyclobutanamine]
6.00 to 7.00 | 6.00 to 7.00 | < 5.00 | Cn1cc(C(=O)NCCO)c2oc(-c3ccc(C4(N)CCC4)cc3)c(-c3ccccc3)c2c1=O [Example 120, 2-(4-(1-Aminocyclobutyl)phenyl)-N-(2-hydroxyethyl)-5-methyl-4-oxo-3-phenyl-4,5-dihydrofuro[3,2-c]pyridine-7-carboxamide]
5.00 to 6.00 | 6.00 to 7.00 | < 5.00 | NC1(c2ccc(-c3oc4ncc(-c5cncnc5)nc4c3-c3ccccc3)cc2)CCC1 [Example 140, 1-(4-(7-Phenyl-2-(pyrimidin-5-yl)furo[2,3-b]pyrazin-6-yl)phenyl)cyclobutanamine]
6.00 to 7.00 | 5.00 to 6.00 | < 5.00 | Cn1c(=O)c2c(-c3ccccc3)c(-c3ccc(C4(N)CCC4)cc3)oc2n(C)c1=O [Example 125, 6-(4-(1-Aminocyclobutyl)phenyl)-1,3-dimethyl-5-phenylfuro[2,3-d]pyrimidine-2,4(1H,3H)-dione]
5.00 to 6.00 | 6.00 to 7.00 | 5.00 to 6.00 | NC1(c2ccc(-c3oc4c(=O)n(CCCO)ccc4c3-c3ccccc3)cc2)CCC1 [Example 131, 2-(4-(1-Aminocyclobutyl)phenyl)-6-(3-hydroxypropyl)-3-phenylfuro[2,3-c]pyridin-7(6H)-one]
6.00 to 7.00 | 5.00 to 6.00 | < 5.00 | Cn1nccc1-c1cnc2oc(-c3ccc(C4(N)CCC4)cc3)c(-c3ccccc3)c2n1 [Example 137, 1-(4-(2-(1-methyl-1H-pyrazol-5-yl)-7-phenylfuro[2,3-b]pyrazin-6-yl)phenyl)cyclobutanamine]
6.00 to 7.00 | 6.00 to 7.00 | < 5.00 | COc1nccc2c(-c3ccccc3)c(-c3ccc(C4(N)CCC4)cc3)oc12 [Example 126, 1-(4-(7-Methoxy-3-phenylfuro[2,3-c]pyridin-2-yl)phenyl)cyclobutanamine]
